Patent US20030134859A1 (SANKYO COMPANY, LIMITED, priority 2000, published 2003)
Where two headings read alike, the source gives them in different places.

What was measured:
leptin production = assay: Enhancing activity for leptin production in adipocytes (ELISA); type: cell-based, rat; conditions: leptin concentration as % of control group
Summary of the method: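 Leptin release, quantified by rat leptin ELISA, expressed as percent of 0.1% DMSO control after 24 h at 37 °C. Cells were floating adipocytes isolated by collagenase digestion of epididymal fat from male 6-week Wistar Imamichi rats; compound tested at 1 nM–1 µM final.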

TNF-α production = assay: Inhibitory activity against cytokine (TNF-α) production in LPS-stimulated RAW264.7 cells; type: cell-based, mouse; conditions: 1 μM test compound, LPS 10 ng/mL; for inhibition at 1 µM: Mus musculus
Summary of the method: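 Mouse RAW264.7 macrophages (5,000 cells/well) stimulated with 10 ng/mL LPS (final) and treated with test compound at 1 μM final for 15 h at 37 °C. Supernatant mouse TNF-α measured by ELISA; % inhibition = 100−(A−B)/(C−B)×100, using unstimulated and LPS-only controls.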

[1] = Rattus norvegicus, Adipocyte, 10 nm, 24 hr, read-out: Facilitating activity to produce leptin
[2] = Rattus norvegicus, Adipocyte, 100 nm, 24 hr, read-out: Facilitating activity to produce leptin
[3] = Rattus norvegicus, Adipocyte, 24 h, 10 nm, read-out: Facilitating activity to produce leptin
[4] = Rattus norvegicus, Adipocyte, 24 h, 100 nm, read-out: Facilitating activity to produce leptin
[5] = Rattus norvegicus, Adipocyte, 24 h, 1 μM, read-out: Facilitating activity to produce leptin

O=C(Nc1nc(-c2ccc([N+](=O)[O-])cc2)cs1)c1cc([N+](=O)[O-])ccc1Cl [Example 246, N-[4-(4-Nitrophenyl)thiazol-2-yl]-(2-chloro-5-nitrophenyl)carboxamide]
activity at 0.01 µM (leptin production; [1]): 111%
activity at 0.1 µM (leptin production; [2]): 113%
inhibition at 1 µM (TNF-α production; 15 hr): 18%

CCOC(=O)NC(=S)Nc1ccc(-c2ccc(NC(=O)c3cc([N+](=O)[O-])ccc3Cl)cc2)cc1 [Example 251, N-[4-[4-(Ethoxycarbonylaminothiocarbonylamino)phenyl]phenyl]-(2-chloro-5-nitrophenyl)carboxamide]
activity at 0.01 µM (leptin production; [3]): 111%
activity at 0.1 µM (leptin production; [4]): 107%
inhibition at 1 µM (TNF-α production; RAW264.7, 15 h): 29%

O=C(Nc1ccc(-c2ccc(NC(=S)Nc3ccccc3)cc2)cc1)c1cc([N+](=O)[O-])ccc1Cl [Example 252, N-[4-[4-(Phenylaminothiocarbonylamino)phenyl]phenyl]-(2-chloro-5-nitrophenyl)carboxamide]
activity at 1 µM (leptin production; [5]): 108%
activity at 0.01 µM (leptin production; [3]): 110%
activity at 0.1 µM (leptin production; [4]): 113%
inhibition at 1 µM (TNF-α production; RAW264.7, 15 h): 19.3%

O=C(Nc1ccc(-c2ccc(NC(=O)c3cc([N+](=O)[O-])ccc3Cl)cc2)cc1)Nc1ccccc1[N+](=O)[O-] [Example 254, N-[4-[4-(2-Nitrophenylaminocarbonylamino)phenyl]phenyl]-(2-chloro-5-nitrophenyl)carboxamide]
activity at 1 µM (leptin production; Rattus norvegicus, Adipocyte, 1 μM, 24 hr, read-out: Facilitating activity to produce leptin): 109%
activity at 0.01 µM (leptin production; [1]): 111%
activity at 0.1 µM (leptin production; [2]): 106%
inhibition at 1 µM (TNF-α production; 15 hr): 44.3%

O=C(NC(=S)NCCc1ccc(NC(=O)c2cc([N+](=O)[O-])ccc2Cl)cc1)c1ccccc1 [Example 271, N-[4-(2-Phenylcarbonylaminothiocarbonylaminoethyl)phenyl]-(2-chloro-5-nitrophenyl)carboxamide]
activity at 0.01 µM (leptin production; [3]): 121%
activity at 0.1 µM (leptin production; [4]): 115%
inhibition at 1 µM (TNF-α production; RAW264.7, 15 h): 25.2%

CCS(=O)(=O)N(c1ccc(-c2ccc(NC(=O)c3cc([N+](=O)[O-])ccc3Cl)cc2)cc1)S(=O)(=O)CC [Example 276, N-[4-[4-(N,N-Diethanesulfonylamino)phenyl]phenyl]-(2-chloro-5-nitrophenyl)carboxamide]
activity at 1 µM (leptin production; [5]): 117%
activity at 0.001 µM (leptin production; Rattus norvegicus, Adipocyte, 24 h, 1 nm, read-out: Facilitating activity to produce leptin): 108%
activity at 0.01 µM (leptin production; [3]): 112%
activity at 0.1 µM (leptin production; [4]): 123%
inhibition at 1 µM (TNF-α production; RAW264.7, 15 h): 28.5%

N-[4-(Benzenesulfonylaminophenyl)phenyl]-(2-chloro-5-nitrophenyl)carboxamide [Example 128]
Facilitating activity to produce leptin (leptin production; 1 μM, 24 hr): 137.3%
Facilitating activity to produce leptin (leptin production; 10 nm, 24 hr): 108.8%
Facilitating activity to produce leptin (leptin production; 100 nm, 24 hr): 130.8%
Inhibitory Activity (%) against TNF-α production (TNF-α production; 15 hr): 28.8%
